Assay results taken from patent US10670605B2, “Cysteine reactive probes and uses thereof” (The Scripps Research Institute, priority 2015, dated 2020).

Key:
Experiment in all cases: Competitive isoTOP-ABPP, cell lysates;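 as to isoTOP-ABPP reactivity profile ratio, Q15084 C190: Heavy/light ratio DMSO over fragment-treated so higher means more cysteine engagement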;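 as to isoTOP-ABPP reactivity profile ratio, Q99873 C109: Heavy/light ratio DMSO over fragment-treated so higher means more cysteine engagement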
Assay type in all cases: binding
SMARCC2 C145 (Q8TAQ2) = SMARCC2 C145 (Q8TAQ2) (Homo sapiens, UniProt Q8TAQ2)
SMARCC2 C145 (Q8TAQ2), sequence (Q8TAQ2 whole entry, the tested form may be a part): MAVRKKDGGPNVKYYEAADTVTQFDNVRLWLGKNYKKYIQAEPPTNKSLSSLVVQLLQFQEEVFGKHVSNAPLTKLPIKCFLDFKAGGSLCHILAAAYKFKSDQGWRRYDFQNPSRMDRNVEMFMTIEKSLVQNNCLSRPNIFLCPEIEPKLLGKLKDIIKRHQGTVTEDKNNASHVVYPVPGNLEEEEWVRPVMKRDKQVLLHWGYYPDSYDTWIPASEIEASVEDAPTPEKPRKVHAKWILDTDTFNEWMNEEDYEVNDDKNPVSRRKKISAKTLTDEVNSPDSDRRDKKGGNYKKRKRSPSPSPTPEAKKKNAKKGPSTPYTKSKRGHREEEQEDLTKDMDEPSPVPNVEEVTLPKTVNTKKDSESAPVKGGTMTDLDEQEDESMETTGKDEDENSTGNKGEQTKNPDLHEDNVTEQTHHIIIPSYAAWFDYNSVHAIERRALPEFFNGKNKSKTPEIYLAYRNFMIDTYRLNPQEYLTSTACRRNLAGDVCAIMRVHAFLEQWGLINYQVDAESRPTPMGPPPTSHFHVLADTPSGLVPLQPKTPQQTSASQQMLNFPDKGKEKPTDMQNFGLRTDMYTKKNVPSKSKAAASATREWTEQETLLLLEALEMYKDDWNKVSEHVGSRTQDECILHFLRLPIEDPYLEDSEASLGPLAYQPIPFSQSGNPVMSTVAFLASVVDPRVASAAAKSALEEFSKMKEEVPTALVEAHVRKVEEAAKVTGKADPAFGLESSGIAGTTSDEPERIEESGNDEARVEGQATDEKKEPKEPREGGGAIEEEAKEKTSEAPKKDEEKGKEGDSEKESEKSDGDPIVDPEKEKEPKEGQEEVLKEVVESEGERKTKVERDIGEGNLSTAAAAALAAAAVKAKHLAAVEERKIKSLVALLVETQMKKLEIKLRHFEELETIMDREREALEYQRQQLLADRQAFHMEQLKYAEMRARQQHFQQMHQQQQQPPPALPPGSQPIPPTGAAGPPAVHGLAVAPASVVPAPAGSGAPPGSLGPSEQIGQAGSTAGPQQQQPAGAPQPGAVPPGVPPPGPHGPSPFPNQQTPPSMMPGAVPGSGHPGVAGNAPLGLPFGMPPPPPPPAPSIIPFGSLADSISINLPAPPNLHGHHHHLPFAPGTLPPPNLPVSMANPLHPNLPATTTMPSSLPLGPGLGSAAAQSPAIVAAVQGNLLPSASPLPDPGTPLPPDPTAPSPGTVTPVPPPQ

PRMT1 C109 (Q99873) = PRMT1 C109 (Q99873) (Homo sapiens, UniProt Q99873);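 as to isoTOP-ABPP reactivity profile ratio, Q99873 C109: Heavy/light ratio DMSO over fragment-treated so higher means more cysteine engagement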
PRMT1 C109 (Q99873), sequence (Q99873 whole entry, the tested form may be a part): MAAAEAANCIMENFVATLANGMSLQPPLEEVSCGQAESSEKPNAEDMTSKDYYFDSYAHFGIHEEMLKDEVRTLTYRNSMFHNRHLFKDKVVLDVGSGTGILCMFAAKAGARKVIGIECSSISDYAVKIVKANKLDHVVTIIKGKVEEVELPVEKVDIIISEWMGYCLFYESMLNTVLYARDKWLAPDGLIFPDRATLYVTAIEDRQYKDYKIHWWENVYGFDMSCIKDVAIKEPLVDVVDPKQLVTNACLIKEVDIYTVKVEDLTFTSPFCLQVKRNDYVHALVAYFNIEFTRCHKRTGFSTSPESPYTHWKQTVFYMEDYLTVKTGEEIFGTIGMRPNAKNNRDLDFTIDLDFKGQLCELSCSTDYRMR

UBE2S C118 (Q16763) = molecular target: T1, UBE2S C118 (Q16763) (Homo sapiens, UniProt Q16763)
T1 sequence (Q16763 1-222): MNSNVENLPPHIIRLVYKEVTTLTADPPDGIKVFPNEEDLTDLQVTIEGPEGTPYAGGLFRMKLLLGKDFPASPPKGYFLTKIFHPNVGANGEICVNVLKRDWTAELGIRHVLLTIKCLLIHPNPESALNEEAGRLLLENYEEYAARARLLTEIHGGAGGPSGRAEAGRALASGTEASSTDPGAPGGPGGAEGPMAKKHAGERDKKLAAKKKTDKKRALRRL

PDIA6 C190 (Q15084) = molecular target: T2, PDIA6 C190 (Q15084) (Homo sapiens, UniProt Q15084);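 as to isoTOP-ABPP reactivity profile ratio, Q15084 C190: Heavy/light ratio DMSO over fragment-treated so higher means more cysteine engagement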
T2 sequence (Q15084 20-440): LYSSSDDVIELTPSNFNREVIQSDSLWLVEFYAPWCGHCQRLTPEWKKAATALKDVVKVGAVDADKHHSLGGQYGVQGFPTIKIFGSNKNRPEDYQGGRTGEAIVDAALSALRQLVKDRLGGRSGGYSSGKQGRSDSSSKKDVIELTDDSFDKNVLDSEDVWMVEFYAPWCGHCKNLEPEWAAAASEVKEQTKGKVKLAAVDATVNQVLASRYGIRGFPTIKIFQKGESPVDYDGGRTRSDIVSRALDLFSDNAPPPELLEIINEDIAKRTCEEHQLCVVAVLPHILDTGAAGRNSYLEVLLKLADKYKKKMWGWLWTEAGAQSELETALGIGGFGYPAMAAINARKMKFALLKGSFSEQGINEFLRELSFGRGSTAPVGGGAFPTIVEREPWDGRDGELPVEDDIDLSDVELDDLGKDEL

ACAT1 C119 (P24752) = molecular target: T3, ACAT1 C119 (P24752) (Homo sapiens, UniProt P24752)
T3 sequence (P24752 34-427): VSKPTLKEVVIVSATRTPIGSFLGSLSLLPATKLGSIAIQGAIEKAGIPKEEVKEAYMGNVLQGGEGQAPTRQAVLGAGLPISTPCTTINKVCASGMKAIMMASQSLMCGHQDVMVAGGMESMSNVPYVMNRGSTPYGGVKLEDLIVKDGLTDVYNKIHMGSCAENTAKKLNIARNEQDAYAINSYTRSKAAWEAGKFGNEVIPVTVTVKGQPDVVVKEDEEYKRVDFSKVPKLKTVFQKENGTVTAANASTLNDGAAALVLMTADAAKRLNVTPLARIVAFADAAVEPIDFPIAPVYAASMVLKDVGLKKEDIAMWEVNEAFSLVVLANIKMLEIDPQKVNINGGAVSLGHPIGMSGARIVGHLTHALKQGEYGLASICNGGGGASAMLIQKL

ACAT1 C413 (P24752) = molecular target: T4, ACAT1 C413 (P24752) (Homo sapiens, UniProt P24752)
T4 sequence (P24752 34-427): T3 sequence (P24752 34-427)

STAT3 C259 (P40763) = STAT3 C259 (P40763) (Homo sapiens, UniProt P40763)
STAT3 C259 (P40763), sequence (P40763 whole entry): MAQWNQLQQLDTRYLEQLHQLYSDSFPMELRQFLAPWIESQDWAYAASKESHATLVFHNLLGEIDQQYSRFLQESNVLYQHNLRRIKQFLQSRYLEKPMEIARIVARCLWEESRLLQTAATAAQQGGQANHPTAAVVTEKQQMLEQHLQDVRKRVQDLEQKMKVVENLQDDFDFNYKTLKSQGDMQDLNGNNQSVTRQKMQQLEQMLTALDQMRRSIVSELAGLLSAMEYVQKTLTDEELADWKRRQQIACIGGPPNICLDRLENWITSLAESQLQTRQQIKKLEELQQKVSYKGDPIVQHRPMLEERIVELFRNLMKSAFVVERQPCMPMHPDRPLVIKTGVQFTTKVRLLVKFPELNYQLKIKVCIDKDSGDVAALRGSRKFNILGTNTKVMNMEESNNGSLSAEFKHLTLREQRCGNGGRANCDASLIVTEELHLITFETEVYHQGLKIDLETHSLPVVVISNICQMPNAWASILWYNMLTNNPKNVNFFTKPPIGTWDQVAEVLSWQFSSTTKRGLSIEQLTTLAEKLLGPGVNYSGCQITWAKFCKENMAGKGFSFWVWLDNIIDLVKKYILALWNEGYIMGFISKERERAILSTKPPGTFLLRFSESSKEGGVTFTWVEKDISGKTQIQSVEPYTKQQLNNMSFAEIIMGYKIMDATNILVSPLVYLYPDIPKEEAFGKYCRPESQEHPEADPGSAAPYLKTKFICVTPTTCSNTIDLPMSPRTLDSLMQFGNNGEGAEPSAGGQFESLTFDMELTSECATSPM

O=C(CCl)NC1C(O)OC(CO)C(O)C1O (mixture of isomers) [compound 44]
isoTOP-ABPP reactivity profile ratio, Q8TAQ2_C145 (SMARCC2 C145 (Q8TAQ2); 500 μm, in-vitro_ramos_231): 1.0
isoTOP-ABPP reactivity profile ratio, Q99873_C109 (PRMT1 C109 (Q99873); 500 μm, in-vitro_ramos_231): 0.8
isoTOP-ABPP reactivity profile ratio, Q16763_C118 (UBE2S C118 (Q16763); 500 μm, in-vitro_ramos_231): 0.8
isoTOP-ABPP reactivity profile ratio, Q15084_C190 (PDIA6 C190 (Q15084); 500 μm, in-vitro_ramos_231): 1.0
isoTOP-ABPP reactivity profile ratio, P24752_C119 (ACAT1 C119 (P24752); 500 μm, in-vitro_ramos_231): 0.8
isoTOP-ABPP reactivity profile ratio, P24752_C413 (ACAT1 C413 (P24752); 500 μm, in-vitro_ramos_231): 0.8

COc1ccc2c(c1)CCCN2C(=O)CCl [compound 2]
R value (DMSO/fragment) (SMARCC2 C145 (Q8TAQ2); 500 μM, in vitro, MDA-MB-231): 8.5
R value (DMSO/fragment) (SMARCC2 C145 (Q8TAQ2); 500 μM, invitro, ramos): 14.0
R value (DMSO/fragment) (PRMT1 C109 (Q99873); 500 μM, in vitro, MDA-MB-231): 3.1
R value (DMSO/fragment) (PRMT1 C109 (Q99873); 500 μM, invitro, ramos): 12.6
blockade of IA-alkyne labeling of C109 of PRMT1 (PRMT1 C109 (Q99873); competitive isoTOP-ABPP): blocking IA-alkyne labeling
R value (DMSO/fragment) (UBE2S C118 (Q16763); 500 μM, in vitro, MDA-MB-231): 4.2
R value (DMSO/fragment) (UBE2S C118 (Q16763); 500 μM, invitro, ramos): 6.9
R value (DMSO/fragment) (PDIA6 C190 (Q15084); 500 μM, invitro, ramos): 15.4
R value (DMSO/fragment) (ACAT1 C119 (P24752); 500 μM, in vitro, MDA-MB-231): 3.9
R value (DMSO/fragment) (ACAT1 C119 (P24752); 500 μM, invitro, ramos): 3.2
R value (DMSO/fragment) (ACAT1 C413 (P24752); 500 μM, in vitro, MDA-MB-231): 18.1

O=C(CCl)Nc1cc(C(F)(F)F)cc(C(F)(F)F)c1 [compound 3]
R value (DMSO/fragment) (SMARCC2 C145 (Q8TAQ2); 500 μM, in vitro, MDA-MB-231): 9.7
R value (DMSO/fragment) (SMARCC2 C145 (Q8TAQ2); 500 μM, invitro, ramos): 6.6
R value (DMSO/fragment) (STAT3 C259 (P40763); 500 μM, in vitro, MDA-MB-231): 2.5
R value (DMSO/fragment) (STAT3 C259 (P40763); 500 μM, invitro, ramos): 2.9
R value (DMSO/fragment) (PRMT1 C109 (Q99873); 500 μM, in vitro, MDA-MB-231): 1.3
R value (DMSO/fragment) (PRMT1 C109 (Q99873); 500 μM, invitro, ramos): 1.8
R value (DMSO/fragment) (UBE2S C118 (Q16763); 500 μM, in vitro, MDA-MB-231): 1.3
R value (DMSO/fragment) (UBE2S C118 (Q16763); 500 μM, invitro, ramos): 1.5
R value (DMSO/fragment) (PDIA6 C190 (Q15084); 500 μM, in vitro, MDA-MB-231): 19.9
R value (DMSO/fragment) (PDIA6 C190 (Q15084); 500 μM, invitro, ramos): 13.1
R value (DMSO/fragment) (ACAT1 C119 (P24752); 500 μM, in vitro, MDA-MB-231): 2.1
R value (DMSO/fragment) (ACAT1 C119 (P24752); 500 μM, invitro, ramos): 5.3
R value (DMSO/fragment) (ACAT1 C413 (P24752); 500 μM, in vitro, MDA-MB-231): 15.3
R value (DMSO/fragment) (ACAT1 C413 (P24752); 500 μM, invitro, ramos): 20.0

COc1ccc(C2CC(c3cccs3)=NN2C(=O)CCl)cc1 (stereo not drawn) [compound 4]
R value (DMSO/fragment) (SMARCC2 C145 (Q8TAQ2); 250 μM, in vitro, MDA-MB-231): 1.3
R value (DMSO/fragment) (STAT3 C259 (P40763); 250 μM, in vitro, MDA-MB-231): 2.0
R value (DMSO/fragment) (STAT3 C259 (P40763); 250 μM, in vitro, Ramos): 1.9
R value (DMSO/fragment) (PRMT1 C109 (Q99873); 250 μM, in vitro, MDA-MB-231): 1.1
R value (DMSO/fragment) (PRMT1 C109 (Q99873); 250 μM, in vitro, Ramos): 0.2
R value (DMSO/fragment) (UBE2S C118 (Q16763); 250 μM, in vitro, MDA-MB-231): 1.2
R value (DMSO/fragment) (PDIA6 C190 (Q15084); 250 μM, in vitro, MDA-MB-231): 1.8
R value (DMSO/fragment) (PDIA6 C190 (Q15084); 250 μM, in vitro, Ramos): 1.2
R value (DMSO/fragment) (ACAT1 C119 (P24752); 250 μM, in vitro, MDA-MB-231): 1.8
R value (DMSO/fragment) (ACAT1 C119 (P24752); 250 μM, in vitro, Ramos): 0.2
R value (DMSO/fragment) (ACAT1 C413 (P24752); 250 μM, in vitro, MDA-MB-231): 3.3
